The text below walks through data of paper PMC8544286, “Screening and Identification of a Novel Anti-tuberculosis Compound That Targets Deoxyuridine 5′-Triphosphate Nucleotidohydrolase” (Frontiers in Microbiology, 2021).

SMILES strings stand for the structures. Values after ≈ are worked out from the molar mass of the structure shown. Like-named read-outs stand apart in the source and are kept apart here.

The test system of assay [1] is extensive drug-resistant strain XDR-FJ05195. The assay is described as follows: microbe, parasite or virus in culture. Type of assay: cell-based. Conditions: Mycobacterium tuberculosis, 168 h.
The subject of assay [2] is extensive drug-resistant strain XDR-XZ06008. Description: microbe, parasite or virus in culture. Conditions: Mycobacterium tuberculosis, 168 h. Type of assay: cell-based.
The subject of assay [3] is multidrug-resistant strain MDR-FJ05120. The assay is described as follows: microbe, parasite or virus in culture. Type of assay: cell-based. Conditions: Mycobacterium tuberculosis, 168 h.
For assay [4], the system named is multidrug-resistant strain MDR-FJ05189. The assay is described as follows: microbe, parasite or virus in culture. Type of assay: cell-based. Conditions: Mycobacterium tuberculosis, 168 h.
Assay [5] concerns the target Mt-P79A-dUTPase (Mycobacterium tuberculosis, UniProt P9WNS5, P79A). It is filed as binding.
Setting [6] is: […], MABA, 7 days at 37°C, read-out: MIC.

Consider `CO[C@H]1/C=C/O[C@@]2(C)Oc3c(C)c(O)c4c(O)c(c(/C=N/N5CCN(C)CC5)c(O)c4c3C2=O)NC(=O)/C(C)=C\C=C\[C@H](C)[C@H](O)[C@@H](C)[C@@H](O)[C@@H](C)[C@H](OC(C)=O)[C@@H]1C` [Rifampicin], for which the MIC is 4 µg/mL (≈ 4.86 µM) in assay [1], greater than 256 µg/mL in assay [2], greater than 256 µg/mL in assay [3] and greater than 256 µg/mL in assay [4].

With `C=CCn1c(/C=C/c2ccccc2)nc2ccccc21` [F0414], the MIC came out at 2 µg/mL (≈ 7.68 µM) in assay [1] (setting [6]), 8 µg/mL (≈ 30.7 µM) in assay [2] (setting [6]), 8 µg/mL (≈ 30.7 µM) in assay [3] (setting [6]) and 2 µg/mL (≈ 7.68 µM) in assay [4] (setting [6]). The “SPR binding to Mt-P79A-dUTPase” value in assay [5] is “much weaker affinity”.

Turning to `NNC(=O)c1ccncc1` [Isoniazid], the MIC was greater than 256 µg/mL in assay [1] (setting [6]), greater than 256 µg/mL in assay [2] (setting [6]), 4 µg/mL (≈ 29.2 µM) in assay [3] (setting [6]) and less than 0.5 µg/mL in assay [4] (setting [6]).
